Reference: ChEMBL document CHEMBL2413049, “Design and synthesis of novel 1,25-dihydroxyvitamin D3 analogues having a spiro-oxetane fused at the C2 position in the A-ring” (Bioorg Med Chem, 2013)
Blank lines part the entries; values can stand above or below the compound they belong to.

Tests used:
[1] = molecular target: T1, Vitamin D3 receptor (Bos taurus) (UniProt Q28037); test: Binding affinity to bovine thymus VDR relative to 1alpha,25-dihydroxyvitamin D3
T1 sequence (whole entry): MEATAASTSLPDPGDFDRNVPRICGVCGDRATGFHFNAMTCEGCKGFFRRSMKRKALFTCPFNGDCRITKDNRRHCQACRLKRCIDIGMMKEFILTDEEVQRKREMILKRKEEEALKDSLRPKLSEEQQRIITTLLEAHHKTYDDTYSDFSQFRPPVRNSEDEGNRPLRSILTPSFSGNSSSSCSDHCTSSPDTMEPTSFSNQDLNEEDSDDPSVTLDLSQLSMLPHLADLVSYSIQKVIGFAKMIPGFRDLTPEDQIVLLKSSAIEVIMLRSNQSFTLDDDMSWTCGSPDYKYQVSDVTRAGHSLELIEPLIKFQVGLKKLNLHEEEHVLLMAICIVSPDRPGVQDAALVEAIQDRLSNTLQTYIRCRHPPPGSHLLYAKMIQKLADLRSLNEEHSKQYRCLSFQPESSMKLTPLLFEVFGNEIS

[2] = molecular target: T1, Vitamin D3 receptor (Bos taurus); test: Displacement of [3H]-1alpha,25 dihydroxyvitamin D3 from bovine thymus VDR after 60 mins relative to 1alpha,25-dihydroxyvitamin D3
[3] = molecular target: T2, Vitamin D3 receptor (Homo sapiens) (UniProt P11473); test: Binding affinity to VDR (unknown origin) relative to 1alpha,25-dihydroxyvitamin D3
T2 sequence (whole entry): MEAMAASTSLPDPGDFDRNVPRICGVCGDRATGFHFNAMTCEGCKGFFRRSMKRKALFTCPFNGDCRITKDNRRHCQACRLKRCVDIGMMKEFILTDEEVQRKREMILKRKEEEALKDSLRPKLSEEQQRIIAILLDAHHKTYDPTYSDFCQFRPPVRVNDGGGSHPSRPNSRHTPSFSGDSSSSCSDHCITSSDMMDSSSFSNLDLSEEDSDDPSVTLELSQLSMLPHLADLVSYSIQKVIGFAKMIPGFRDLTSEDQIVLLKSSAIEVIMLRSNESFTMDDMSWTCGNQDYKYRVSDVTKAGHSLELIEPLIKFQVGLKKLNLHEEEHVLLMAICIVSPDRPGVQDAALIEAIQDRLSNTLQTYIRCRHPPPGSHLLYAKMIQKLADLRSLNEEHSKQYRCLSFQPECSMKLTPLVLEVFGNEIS

fold change (FC) [2]: 0.002
SMILES: C=C1/C(=C\C=C2/CCC[C@]3(C)[C@@H]([C@H](C)CCCC(C)(C)O)CC[C@@H]23)C[C@@H](O)C2(COC2)[C@H]1O

fold change (FC) [2]: 5
SMILES: C=C1/C(=C\C=C2/CCC[C@]3(C)[C@@H]([C@H](C)CCCC(C)(C)O)CC[C@@H]23)C[C@@H](O)C2(COC2)[C@@H]1O

fold change (FC) [2]: 0.001
SMILES: C=C1/C(=C\C=C2/CCC[C@]3(C)[C@@H]([C@H](C)CCCC(C)(C)O)CC[C@@H]23)C[C@H](O)C2(COC2)[C@H]1O

Further lines, the compound ahead of its results:

SMILES: C=C1/C(=C\C=C2/CCC[C@]3(C)[C@@H]([C@H](C)CCCC(C)(C)O)CC[C@@H]23)C[C@@H](O)[C@@H](C)[C@@H]1O
fold change (FC) [1]: 13

SMILES: C=C1/C(=C\C=C2/CCC[C@]3(C)[C@@H]([C@H](C)CCCC(C)(C)O)CC[C@@H]23)C[C@H](O)C2(COC2)[C@@H]1O
fold change (FC) [2]: 0.04

SMILES: C=C1/C(=C\C=C2/CCC[C@]3(C)[C@@H]([C@H](C)CCCC(C)(C)O)CC[C@@H]23)C[C@@H](O)C[C@@H]1O
fold change (FC) [2]: 100

SMILES: C=C1/C(=C\C=C2/CCC[C@]3(C)[C@@H]([C@H](C)CCCC(C)(C)O)CC[C@@H]23)C[C@@H](O)C(C)(C)[C@@H]1O
fold change (FC) [3]: 3

SMILES: C=C1/C(=C\C=C2/CCC[C@]3(C)[C@@H]([C@H](C)CCCC(C)(C)O)CC[C@@H]23)C[C@@H](O)[C@H](C)[C@@H]1O
fold change (FC) [1]: 400
